Measured values reported in patent US9834542B2, “LXR modulators” (BRISTOL-MYERS SQUIBB COMPANY, priority 2013, dated 2017).

Target: T1, LXRβ (Homo sapiens, UniProt P55055)
T1 construct: Co-transfection expression plasmids, comprising full-length LXRα (pCMX-h LXRα[…] or LXRβ (pCMX-hLXRβ)); expressed in transfected cells; host or cells: CV-1 African Green Monkey Kidney Cells
T1 sequence (P55055 1-460): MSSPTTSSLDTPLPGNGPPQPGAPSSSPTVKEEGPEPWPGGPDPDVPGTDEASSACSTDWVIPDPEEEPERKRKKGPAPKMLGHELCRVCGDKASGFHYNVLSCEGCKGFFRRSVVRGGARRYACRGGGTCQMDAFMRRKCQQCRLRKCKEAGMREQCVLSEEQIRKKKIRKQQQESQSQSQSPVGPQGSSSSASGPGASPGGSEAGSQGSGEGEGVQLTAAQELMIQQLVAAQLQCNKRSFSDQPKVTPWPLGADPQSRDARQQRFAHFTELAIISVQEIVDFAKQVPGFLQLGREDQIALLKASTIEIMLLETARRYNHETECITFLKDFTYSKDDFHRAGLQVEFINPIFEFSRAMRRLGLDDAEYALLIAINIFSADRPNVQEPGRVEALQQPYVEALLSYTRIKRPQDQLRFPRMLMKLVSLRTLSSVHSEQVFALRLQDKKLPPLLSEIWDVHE
T1 sequence (P19793 1-462 partner): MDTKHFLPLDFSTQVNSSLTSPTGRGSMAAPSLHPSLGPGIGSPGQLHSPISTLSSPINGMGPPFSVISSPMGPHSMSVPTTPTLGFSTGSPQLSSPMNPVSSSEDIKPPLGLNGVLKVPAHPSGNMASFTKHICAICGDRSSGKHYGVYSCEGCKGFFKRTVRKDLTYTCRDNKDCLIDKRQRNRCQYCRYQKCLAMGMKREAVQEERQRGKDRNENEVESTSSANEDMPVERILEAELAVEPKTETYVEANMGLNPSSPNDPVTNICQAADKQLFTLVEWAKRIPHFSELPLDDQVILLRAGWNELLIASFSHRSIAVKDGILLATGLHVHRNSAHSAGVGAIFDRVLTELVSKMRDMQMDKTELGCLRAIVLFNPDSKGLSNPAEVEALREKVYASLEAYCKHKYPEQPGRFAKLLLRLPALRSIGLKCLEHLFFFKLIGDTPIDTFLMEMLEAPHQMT
Test: Co-transfection assay (LXRE luciferase reporter), LXRβ
Assay type: cell-based
Details: for EC50: CV-1 cells transfected with pCMX-hLXRβ and LXREx1-Tk-Luciferase, 20 hours incubation; for Emax: LXRβ co-transfection, relative to high control 1-(2,4-difluorobenzyl)-2-oxo-6-(4-phenoxyphenyl)-4-(trifluoromethyl)-1,2-dihydropyridine-3-carbonitrile, read-out: % Efficacy
Method in brief: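 Luciferase signal from an LXREx1-Tk reporter was measured after transfected CV-1 cells (full-length hLXRβ, endogenous RXR) were treated with compounds for 20 h at 37 °C, ≤0.5% DMSO. EC50 came from four-parameter fits of 11-point ½-log curves; % efficacy versus a reference agonist maximum.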

Structure (SMILES)	EC50	Emax
COc1cc(-c2oc(C)nc2-c2cc(-c3cccc(S(C)(=O)=O)c3)ccc2-n2cc(C(F)(F)F)nc2C)ccc1OC(F)F [Example 380, 5-(4-(difluoromethoxy)-3-methoxyphenyl)-2-methyl-4-(4-(2-methyl-4-(trifluoromethyl)-1H-imidazol-1-yl)-3′-(methylsulfonyl)biphenyl-3-yl)oxazole]	53 nM	91%
Cc1nc(-c2cc(-c3cc(F)c(CO)c(S(C)(=O)=O)c3)ccc2-n2cc(C(F)(F)F)nc2C)c(-c2ccc(OCC3CC3)c(F)c2)o1 [Example 405, (3′-(5-(4-(cyclopropylmethoxy)-3-fluorophenyl)-2-methyloxazol-4-yl)-3-fluoro-4′-(2-methyl-4-(trifluoromethyl)-1H-imidazol-1-yl)-5-(methylsulfonyl)biphenyl-4-yl)methanol]	68 nM	59%
Cc1cn(-c2ccc(-c3cc(F)c(CO)c(S(C)(=O)=O)c3)cc2-n2nncc2-c2ccc(OC(F)(F)F)cc2)c(C)n1 [Example 84, [4′-(2,4-dimethyl-1H-imidazol-1-yl)-3-fluoro-5-(methylsulfonyl)-3′-(5-{4-[(trifluoromethyl)oxy]phenyl)-1H-1,2,3-triazol-1-yl)biphenyl-4-yl]methanol]	852 nM	96%
Cc1nc(C(F)(F)F)cn1-c1cc(F)c(-c2cccc(S(C)(=O)=O)c2)cc1-n1nncc1-c1ccc(Cl)cc1 [Example 100, 5-(4-chlorophenyl)-1-{6-fluoro-3′-(methylsulfonyl)-4-[2-methyl-4-(trifluoromethyl)-1H-imidazol-1-yl]biphenyl-3-yl}-1H-1,2,3-triazole]	1110 nM	97%
Cc1nc(C(C)(F)F)cn1-c1ccc(-c2cc(F)c(CO)c(S(C)(=O)=O)c2)cc1-c1ocnc1-c1ccc(OC(F)(F)F)cc1 [Example 356, (4′-(4-(1,1-difluoroethyl)-2-methyl-1H-imidazol-1-yl)-3-fluoro-5-(methylsulfonyl)-3′-(4-(4-(trifluoromethoxy)phenyl)oxazol-5-yl)biphenyl-4-yl)methanol]	599 nM	79%
Cc1nc(-c2cc(-c3cc(F)c(CO)c(S(C)(=O)=O)c3)ccc2-n2cc(C(F)(F)F)nc2C)c(-c2cccn(C(C)C)c2=O)o1 [Example 378, 3-(4-(3′-fluoro-4′-(hydroxymethyl)-4-(2-methyl-4-(trifluoromethyl)-1H-imidazol-1-yl)-5′-(methylsulfonyl)biphenyl-3-yl)-2-methyloxazol-5-yl)-1-isopropylpyridin-2(1H)-one]	49 nM	24%
Cc1nc(C(C)(F)F)cn1-c1ccc(-c2ccc(CO)c(S(C)(=O)=O)c2)cc1-n1nncc1-c1ccc(OC(F)(F)F)cc1 [Example 178, {4′-[4-(1,1-difluoroethyl)-2-methyl-1H-imidazol-1-yl]-3-(methylsulfonyl)-3′-(5-{4-[(trifluoromethyl)oxy]phenyl}-1H-1,2,3-triazol-1-yl)biphenyl-4-yl}methanol]	638 nM	89%
CCc1nc(C(F)(F)F)cn1-c1ccc(-c2cccc(S(C)(=O)=O)c2)cc1-n1nncc1-c1ccc(OC(F)(F)F)cc1 [Example 227, 1-(4-(2-ethyl-4-(trifluoromethyl)-1H-imidazol-1-yl)-3′-(methylsulfonyl)-[1,1′-biphenyl]-3-yl)-5-(4-(trifluoromethoxy)phenyl)-1H-1,2,3-triazole]	865 nM	118%
COc1ncc(F)cc1-c1oc(C)nc1-c1cc(-c2cccc(S(C)(=O)=O)c2)ccc1-n1cc(C(F)(F)F)nc1C [Example 400]	1160 nM	55%
Cc1nc(C(F)(F)F)cn1-c1ccc(-c2cccc(S(C)(=O)=O)c2)cc1-n1nncc1-c1ccc(OC(F)(F)F)c(Cl)c1 [Example 53, 5-{3-chloro-4-[(trifluoromethyl)oxy]phenyl}-1-{3′-(methylsulfonyl)-4-[2-methyl-4-(trifluoromethyl)-1H-imidazol-1-yl]biphenyl-3-yl}-1H-1,2,3-triazole]	175 nM	90%
Cc1nc(-c2cc(-c3cc(F)c(CO)c(S(C)(=O)=O)c3)ccc2-n2cc(C(F)(F)F)nc2C)c(-c2ccc(OC(F)F)c(OC(F)F)c2)o1 [Example 393, (3′-(5-(3,4-bis(difluoromethoxy)phenyl)-2-methyloxazol-4-yl)-3-fluoro-4′-(2-methyl-4-(trifluoromethyl)-1H-imidazol-1-yl)-5-(methylsulfonyl)biphenyl-4-yl)methanol]	64 nM	56%
Cc1nc(C(F)(F)F)cn1-c1ccc(-c2cccc(S(C)(=O)=O)c2)cc1-n1nncc1-c1ccc(F)cc1 [Example 43, 5-(4-fluorophenyl)-1-{3′-(methylsulfonyl)-4-[2-methyl-4-(trifluoromethyl)-1H-imidazol-1-yl]biphenyl-3-yl}-1H-1,2,3-triazole]	1140 nM	85%
Cc1nc(C(C)(F)F)cn1-c1ccc(-c2cc(F)c(CO)c(S(C)(=O)=O)c2)cc1-n1nncc1-c1ccc(OC(F)(F)F)cc1 [Example 174, {4′-[4-(1,1-difluoroethyl)-2-methyl-1H-imidazol-1-yl]-3-fluoro-5-(methylsulfonyl)-3′-(5-{4-[(trifluoromethyl)oxy]phenyl}-1H-1,2,3-triazol-1-yl)biphenyl-4-yl}methanol]	467 nM	88%
Cc1nc(C(F)F)cn1-c1ccc(-c2ccc(CO)c(S(C)(=O)=O)c2)cc1-n1nncc1-c1ccc(OC(F)(F)F)cc1 [Example 159, {4′-[4-(difluoromethyl)-2-methyl-1H-imidazol-1-yl]-3-(methylsulfonyl)-3′-(5-{4-[(trifluoromethyl)oxy]phenyl}-1H-1,2,3-triazol-1-yl)biphenyl-4-yl}methanol]	783 nM	97%
Cc1nc(-c2cc(-c3cccc(S(C)(=O)=O)c3)ccc2-n2cc(C(F)(F)F)nc2C)c(-c2cc(Cl)ccn2)o1 [Example 434, 5-(4-chloropyridin-2-yl)-2-methyl-4-(4-(2-methyl-4-(trifluoromethyl)-1H-imidazol-1-yl)-3′-(methylsulfonyl)biphenyl-3-yl)oxazole]	462 nM	65%
Cc1nc(C(F)(F)F)cn1-c1ccc(-c2cc(F)c(CO)c(S(C)(=O)=O)c2)cc1-c1oc(CCO)nc1-c1ccc2c(c1)OC(F)(F)O2 [Example 621, 2-(4-(2,2-difluorobenzo[d][1,3]dioxol-5-yl)-5-(3′-fluoro-4′-(hydroxymethyl)-4-(2-methyl-4-(trifluoromethyl)-1H-imidazol-1-yl)-5′-(methylsulfonyl)-[1,1′-biphenyl]-3-yl)oxazol-2-yl)ethanol]	790 nM	81%
CS(=O)(=O)c1cccc(-c2cc(F)c(-n3cnc(C(F)(F)F)c3)c(-n3nncc3-c3ccc(Cl)cc3)c2)c1 [Example 187, 5-(4-chlorophenyl)-1-{5-fluoro-3′-(methylsulfonyl)-4-[4-(trifluoromethyl)-1H-imidazol-1-yl]biphenyl-3-yl}-1H-1,2,3-triazole]	518 nM	92%
Cc1nc(Cl)cn1-c1ccc(-c2cccc(S(C)(=O)=O)c2)cc1-n1nncc1-c1ccc(Cl)cc1 [Example 150, 1-[4-(4-chloro-2-methyl-1H-imidazol-1-yl)-3′-(methylsulfonyl)biphenyl-3-yl]-5-(4-chlorophenyl)-1H-1,2,3-triazole]	1290 nM	56%
CCCc1nc(-c2cc(-c3cccc(S(C)(=O)=O)c3)ccc2-n2cc(C(F)(F)F)nc2C)c(-c2ccc(OC(F)(F)F)cc2)o1 [Example 520, 4-(4-(2-methyl-4-(trifluoromethyl)-1H-imidazol-1-yl)-3′-(methylsulfonyl)-[1,1′-biphenyl]-3-yl)-2-propyl-5-(4-(trifluoromethoxy)phenyl)oxazole]	22 nM	86%
COc1ncc(-c2oc(C)nc2-c2cc(-c3cccc(S(C)(=O)=O)c3)ccc2-n2cc(C(F)(F)F)nc2C)cc1F [Example 439, 5-(5-fluoro-6-methoxypyridin-3-yl)-2-methyl-4-(4-(2-methyl-4-(trifluoromethyl)-1H-imidazol-1-yl)-3′-(methylsulfonyl)biphenyl-3-yl)oxazole]	410 nM	80%
